Activity calls are given as the source filed them. The calls are words filed in the database; no cut-off is given here.
Legend:
MC3T3-E1 [1] = test: Induction of cells differentiation in mouse MC3T3-E1 cells assessed as increase in osteocalcin production after 14 days by EIA; assay type: functional, cell-based
MC3T3-E1 [2] = test: Induction of osteogenesis in mouse MC3T3-E1 cells assessed as cell differentiation at 30 uM after 6 days by alkaline phosphatase activity assay; assay type: functional, cell-based
[3] = Cytotoxicity against mouse MC3T3-E1 cells at 30 uM after 6 days; assay type: cell-based; settings: mc3t3-e1, 144 h
MC3T3-E1 [4] = test: Induction of osteogenesis in mouse MC3T3-E1 cells assessed as increase in alkaline phosphatase activity after 6 days; assay type: functional, cell-based
Mus musculus = species: Mus musculus; test: Induction of osteogenesis in mouse primary calvarial cells assessed as increase in alkaline phosphatase activity measured by ALP staining after 14 days; assay type: functional
MC3T3-E1 [5] = test: Induction of cells differentiation in mouse MC3T3-E1 cells assessed as increase in mineralization after 14 days by Alizarin Red S staining; assay type: functional, cell-based
MC3T3-E1 [6] = test: Induction of osteogenesis in mouse MC3T3-E1 cells assessed as increase in alkaline phosphatase activity at 30 uM after 6 days in presence of 50 ng/ml noggin BMP antagonist; assay type: functional, cell-based
MC3T3-E1 [7] = test: Induction of osteogenesis in mouse MC3T3-E1 cells assessed as increase in alkaline phosphatase activity at 30 uM after 6 days in presence of 0.1 uM LDN-193289 BMP receptor kinase inhibitor; assay type: functional, cell-based
MC3T3-E1 [8] = test: Induction of osteogenesis in mouse MC3T3-E1 cells assessed as increase in alkaline phosphatase activity at 30 uM after 6 days in presence of 5 uM SB203580 p38 MAPK inhibitor; assay type: functional, cell-based
RAW264 = test: Induction of osteoclast differentiation in mouse RAW264 cells assessed as TRAP activity; assay type: functional, cell-based

SMILES	Activity (MC3T3-E1 [1])	Activity (MC3T3-E1 [2])	Activity [3]	Activity (MC3T3-E1 [4])	Activity (Mus musculus)	Activity (MC3T3-E1 [5])	Activity (MC3T3-E1 [6])	Activity (MC3T3-E1 [7])	Activity (MC3T3-E1 [8])	Activity (RAW264)
Oc1ccc2cc1Oc1ccc(cc1)CC[C@H](O)CCCC2 [ACEROGENIN A]	Active	Active	Non-toxic	Dose-dependent effect	Active	Dose-dependent effect	inactive	inactive	inactive	inactive
Oc1ccc2cc1Oc1ccc(cc1)CCCC[C@@H](O)CC2	Active	Active	Non-toxic	–	–	Dose-dependent effect	–	–	–	inactive
Oc1cc(O)c2c(c1)O[C@H](c1ccc(O)c(O)c1)[C@@H](O)C2 [CIANIDANOL]	–	–	Non-toxic	–	–	–	–	–	–	inactive
Oc1ccc(CCCC[C@@H](O)CCc2ccc(O)cc2)cc1	–	–	Toxic	–	–	–	–	–	–	inactive
OC[C@@]1(O)CO[C@@H](OC[C@H]2O[C@@H](O[C@@H]3CCCCc4ccc(O)c(c4)Oc4ccc(cc4)CC3)[C@H](O)[C@@H](O)[C@@H]2O)[C@@H]1O [ACEROSIDE III]	–	Active	Non-toxic	–	–	–	–	–	–	inactive
OC[C@H]1O[C@H](Oc2ccc3cc2Oc2ccc(cc2)CC[C@@H](O)CCCC3)[C@H](O)[C@@H](O)[C@@H]1O [ACEROSIDE I]	Active	Active	Non-toxic	–	–	Dose-dependent effect	–	–	–	inactive
OC[C@H]1O[C@@H](Oc2ccc3cc2Oc2ccc(cc2)CCCC[C@@H](O)CC3)[C@H](O)[C@@H](O)[C@@H]1O [ACEROSIDE B1]	Active	Active	Non-toxic	–	–	Dose-dependent effect	–	–	–	inactive
C[C@H](O)CCc1ccc(O)cc1	–	inactive	Non-toxic	–	–	–	–	–	–	inactive
